This note sets out measurements from patent publication US11111251B2, “Positive allosteric modulators of the muscarinic acetylcholine receptor M1” (Vanderbilt University, priority 2016, dated 2021).

For the assay, the target named is T1, human mAChR M1 (Homo sapiens, UniProt P11229).
T1 sequence (P11229 1-460): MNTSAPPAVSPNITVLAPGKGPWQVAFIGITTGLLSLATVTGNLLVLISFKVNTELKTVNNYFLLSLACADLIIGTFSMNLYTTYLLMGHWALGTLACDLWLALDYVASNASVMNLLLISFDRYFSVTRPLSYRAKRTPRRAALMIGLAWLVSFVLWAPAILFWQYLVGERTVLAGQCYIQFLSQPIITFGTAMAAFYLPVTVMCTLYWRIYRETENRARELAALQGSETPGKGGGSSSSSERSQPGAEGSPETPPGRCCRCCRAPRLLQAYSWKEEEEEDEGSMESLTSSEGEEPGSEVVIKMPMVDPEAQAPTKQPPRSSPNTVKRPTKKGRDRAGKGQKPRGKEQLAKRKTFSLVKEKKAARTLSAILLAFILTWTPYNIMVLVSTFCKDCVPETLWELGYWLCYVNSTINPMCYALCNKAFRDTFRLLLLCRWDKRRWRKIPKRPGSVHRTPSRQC
Nature of the assay: mAChR M1 cell-based functional assay: calcium mobilization, positive allosteric modulator mode (increase in EC20 acetylcholine response). Conditions: for Emax: read-out: Human M1 Emax (%). A digest of the protocol: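 Calcium-flux assay in CHO-K1 cells stably expressing human M1, loaded with Fluo-4 AM (50 min, 37 °C) and read at 1 Hz. Compound (11-point, 1:3 series) was added at 4 s, EC20 acetylcholine at 144 s and EC80 at 230 s. PAM activity is the concentration-dependent rise in the EC20 response, fitted with a four-parameter logistic.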
Background: A change in cytosolic calcium serves as a functional read-out for many receptors and channels.

The mark [1] stands for this setting: Table 2, human M1, read-out: Human M1 EC50.

Like-named read-outs stand apart in the source and are kept apart here. A value given as a limit tells only on which side of the number the result lay.

For the compound `Cn1cc(-c2ccc(Cc3cc(C(=O)N[C@@H]4CCOC[C@H]4O)nc4ccsc34)cc2)nn1` [Compound 153, N-[(3S,4R)-3-hydroxytetrahydropyran-4-yl]-7-[[4-(1-methyltriazol-4-yl)phenyl]methyl]thieno[3,2-b]pyridine-5-carboxamide], the EC50 under setting [1] stood at 4.74 nM. The Emax (Table 2, human M1) was determined as 59.8%.
Consider `O=C(NC1CC(F)(F)C1)c1cc(Cc2ccc(-n3cccn3)cc2)c2sccc2n1` [Compound 281, N-(3,3-difluorocyclobutyl)-7-[(4-pyrazol-1-ylphenyl)methyl]thieno[3,2-b]pyridine-5-carboxamide], for which the EC50 under setting [1] was determined as 256 nM. In addition, the Emax (Table 2, human M1) is 55%.
In the case of `Cc1nc(-c2ccc(Cc3cc(C(=O)N[C@H]4CCOC[C@@H]4O)nc4ccsc34)cc2)cs1` [Compound 192, N-[(3R,4S)-3-hydroxytetrahydropyran-4-yl]-7-[[4-(2-methylthiazol-4-yl)phenyl]methyl]thieno[3,2-b]pyridine-5-carboxamide], the concentration for a half-maximal effect (EC50) under setting [1] turned out to be 15.3 nM. In addition, the Emax (Table 2, human M1) turned out to be 78.7%.
For the compound `Cc1ccc(Cc2cc(C(=O)N[C@H]3CCCCC[C@@H]3O)nc3ccsc23)cn1` [Compound 47, N-[(1S,2S)-2-hydroxycycloheptyl]-7-[(6-methyl-3-pyridyl)methyl]thieno[3,2-b]pyridine-5-carboxamide], where the note is “Table 1, mAChR M1 cell-based functional assay, PAM mode, species not given, read-out: EC50”, the EC50 was determined as 117 nM.
Turning to `Cc1nc(-c2ccc(Cc3cc(C(=O)NC4CC5(COC5)C4)nc4ccsc34)cc2)co1` [Compound 158, 7-[[4-(2-methyloxazol-4-yl)phenyl]methyl]-N-(2-oxaspiro[3.3]heptan-6-yl)thieno[3,2-b]pyridine-5-carboxamide], the EC50 under setting [1] was 343 nM. Further, where the note is “Table 2, human M1”, the Emax came to 89.7%.
With `Cc1nn(C)c(C)c1-c1ccc(Cc2cc(C(=O)NC3CC4(COC4)C3)nc3ccsc23)cc1` [Compound 241, N-(2-oxaspiro[3.3]heptan-6-yl)-7-[[4-(1,3,5-trimethylpyrazol-4-yl)phenyl]methyl]thieno[3,2-b]pyridine-5-carboxamide], under setting [1], the EC50 is greater than 10000 nM. In addition, under “Table 2, human M1”, the maximum response (Emax) came to 18.8%.
Take `O=C(N[C@@H]1COCC[C@H]1O)c1cc(Cc2ccc(C(F)(F)F)nc2)c2sccc2n1` [Compound 92, N-[(3R,4R)-4-hydroxytetrahydropyran-3-yl]-7-[[6-(trifluoromethyl)-3-pyridyl]methyl]thieno[3,2-b]pyridine-5-carboxamide]: the EC50 under setting [1] is greater than 10000 nM. Also, where the note is “Table 2, human M1”, the maximum response (Emax) amounted to 66.8%.
`CO[C@H]1CCCC[C@@H]1NC(=O)c1cc(Cc2ccc(-c3cscn3)cc2)c2sccc2n1` [Compound 218, N-[(1S,2S)-2-methoxycyclohexyl]-7-[(4-thiazol-4-ylphenyl)methyl]thieno[3,2-b]pyridine-5-carboxamide]: the concentration giving a half-maximal response (EC50) under setting [1] was greater than 10000 nM. For the same compound, the Emax (Table 2, human M1) turned out to be 52.2%.
Regarding `O=C(N[C@H]1CC[C@@H]1O)c1cc(Cc2ccc(-c3cncs3)cc2)c2sccc2n1` [Compound 405], the EC50 under setting [1] was 428 nM. Moreover, the Emax (Table 2, human M1) came out at 73.5%.
For `Cn1ncc2nc(C(=O)N[C@H]3CCC[C@@H]3O)cc(Cc3ccc(-n4cccn4)cc3)c21` [Compound 497, N-[(1S,2S)-2-hydroxycyelopentyl]-1-methyl-7-[(4-pyrazol-1-ylphenyl)methyl]pyrazolo-[4,3-b]pyridine-5-carboxamide], the EC50 under setting [1] is 1180 nM. Besides, the Emax (Table 2, human M1) was 68.1%.
`O=C(NC1CCCCC1)c1cc(Cc2ccc(-n3cccn3)cc2)c2sccc2n1` [Compound 72, N-cyclohexyl-7-[(4-pyrazol-1-ylphenyl)methyl]thieno[3,2-b]pyridine-5-carboxamide]: the EC50 under setting [1] was greater than 10000 nM. In addition, the Emax (Table 2, human M1) stood at 84.5%.
Take `Cn1ccc2nc(C(=O)N[C@H]3CCOC[C@@H]3O)cc(Cc3ccc(-c4nccs4)cc3)c21` [Compound 478, N-[(3R,4S)-3-hydroxytetrahydropyran-4-yl]-1-methyl-7-[(4-thiazol-2-ylphenyl)methyl]pyrrolo[3,2-b]pyridine-5-carboxamide]: the concentration giving a half-maximal response (EC50) under setting [1] worked out at 6.24 nM. The Emax (Table 2, human M1) turned out to be 53.2%.
The like results for `O=C(c1cc(Cc2ccc(-n3cccn3)cc2)c2sccc2n1)N1CC2CC1CO2` (centres unmarked) [Compound 445, 2-oxa-5-azabicyclo[2.2.1]heptan-5-yl-[7-[(4-pyrazol-1-ylphenyl)methyl]thieno[3,2-b]pyridin-5-yl]methanone] were, in that order, greater than 10000 nM and 50.7%.
`Cc1nc(-c2ccc(Cc3cc(C(=O)NC4COC4)nc4ccsc34)cc2)co1` [Compound 147, 7-[[4-(2-methyloxazol-4-yl)phenyl]methyl]-N-(oxetan-3-yl)thieno[3,2-b]pyridine-5-carboxamide]: the EC50 under setting [1] is greater than 10000 nM. Where the note is “Table 2, human M1”, the Emax is 34%.
As for `Cn1ncc2nc(C(=O)NC3CC4(COC4)C3)cc(Cc3ccc(-n4cccn4)cc3)c21` [Compound 500, 1-methyl-N-(2-oxaspiro[3.3]heptan-6-yl)-7-[(4-pyrazol-1-ylphenyl)methyl]pyrazolo-[4,3-b]pyridine-5-carboxamide], the EC50 under setting [1] is greater than 10000 nM. Besides, under “Table 2, human M1”, the Emax turned out to be 63.1%.
Turning to `O=C(NCC1CCN1)c1cc(Cc2ccc(-n3cccn3)cc2)c2sccc2n1` (centres unmarked) [Compound 292, N-(azetidin-2-ylmethyl)-7-[(4-pyrazol-1-ylphenyl)methyl]thieno[3,2-b]pyridine-5-carboxamide], under setting [1], the EC50 stood at 225 nM. For the same compound, the Emax (Table 2, human M1) came out at 81.8%.
With `Cc1cc2nc(C(=O)N[C@H]3CCC[C@@H]3O)cc(Cc3ccc(-n4cccn4)cc3)c2s1` [Compound 236, N-[(1S,2S)-2-hydroxycyclopentyl]-2-methyl-7-[(4-pyrazol-1-ylphenyl)methyl]thieno[3,2-b]pyridine-5-carboxamide], the EC50 under setting [1] came to 2680 nM. Moreover, the Emax (Table 2, human M1) was determined as 78.2%.
Regarding `Cc1ncc(Cc2cc(C(=O)N[C@@H]3CCOC[C@H]3O)nc3ccsc23)cn1` [Compound 128, N-[(3S,4R)-3-hydroxytetrahydropyran-4-yl]-7-[(2-methylpyrimidin-5-yl)methyl]thieno[3,2-b]pyridine-5-carboxamide], the EC50 under setting [1] was greater than 10000 nM. In addition, where the note is “Table 2, human M1”, the Emax is 75%.
The like results for `Cc1csc2c(Cc3ccc(-c4ccn(C)n4)cc3)cc(C(=O)NC3CC(F)(F)C3)nc12` [Compound 309, N-(3,3-difluorocyclobutyl)-3-methyl-7-[[4-(1-methylpyrazol-3-yl)phenyl]methyl]thieno[3,2-b]pyridine-5-carboxamide] were, in that order, 4930 nM and 57.3%.
As for `O=C(c1cc(Cc2ccc(-n3cccn3)cc2)c2sccc2n1)N1CCN(CCO)CC1` [Compound 84, [4-(2-hydroxyethyl)piperazin-1-yl]-[7-[(4-pyrazol-1-ylphenyl)methyl]thieno[3,2-b]pyridin-5-yl]methanone], the EC50 under setting [1] is greater than 10000 nM. Besides, the Emax (Table 2, human M1) was 24.4%.
Take `Cc1ncc(Cc2cc(C(=O)N[C@@H]3CCOC[C@H]3O)nc3ccsc23)s1` [Compound 137, N-[(3S,4R)-3-hydroxytetrahydropyran-4-yl]-7-[(2-methylthiazol-5-yl)methyl]thieno[3,2-b]pyridine-5-carboxamide]: the EC50 under setting [1] came out at 548 nM. Moreover, the Emax (Table 2, human M1) was 80.3%.
Regarding `Cc1csc2c(Cc3ccc(-n4cccn4)cc3)cc(C(=O)N[C@@H]3CCOC3)nc12` [Compound 316, 3-methyl-7-[(4-pyrazol-1-ylphenyl)methyl]-N-[(3R)-tetrahydrofuran-3-yl]thieno[3,2-b]pyridine-5-carboxamide], the EC50 under setting [1] stood at 1090 nM. The Emax (Table 2, human M1) stood at 56.5%.
Regarding `Cn1ccc(-c2ccc(Cc3cc(C(=O)NCC4CCN4)nc4ccsc34)cn2)n1` (centres unmarked) [Compound 421, N-(azetidin-2-ylmethyl)-7-[[6-(1-methylpyrazol-3-yl)-3-pyridyl]methyl]thieno[3,2-b]pyridine-5-carboxamide], the EC50 under setting [1] worked out at 422 nM. In addition, where the note is “Table 2, human M1”, the Emax was 66.9%.
For the compound `Cc1nc(-c2ccc(Cc3cc(C(=O)N[C@H]4COCC[C@@H]4O)nc4ccsc34)cc2)cs1` [Compound 193, N-[(3S,4S)-4-hydroxytetrahydropyran-3-yl]-7-[[4-(2-methylthiazol-4-yl)phenyl]methyl]thieno[3,2-b]pyridine-5-carboxamide], the EC50 under setting [1] is 31.1 nM. In addition, where the note is “Table 2, human M1”, the Emax turned out to be 85.7%.
Consider `Cc1ccc(Cc2cc(C(=O)NC3CCCCCC3(C)O)nc3ccsc23)cn1` (centres unmarked) [Compound 235, N-(2-hydroxy-2-methyl-cycloheptyl)-7-[(6-methyl-3-pyridyl)methyl]thieno[3,2-b]pyridine-5-carboxamide], for which the EC50 under setting [1] was found to be 1010 nM. Also, the Emax (Table 2, human M1) was 71.1%.
Take `Cc1ccc(Cc2cc(C(=O)NC3CC(F)C3)nc3ccsc23)cn1` (centres unmarked) [Compound 259, N-(3-fluorocyclobutyl)-7-[(6-methyl-3-pyridyl)methyl]thieno[3,2-b]pyridine-5-carboxamide]: under setting [1], the EC50 was greater than 10000 nM. Where the note is “Table 2, human M1”, the Emax worked out at 56.2%.
Take `CO[C@@H]1CCCC[C@H]1NC(=O)c1cc(Cc2ccc(-c3coc(C)n3)cc2)c2sccc2n1` [Compound 169, N-[(1R,2R)-2-methoxycyclohexyl]-7-[[4-(2-methyloxazol-4-yl)phenyl]methyl]thieno[3,2-b]pyridine-5-carboxamide]: the EC50 under setting [1] is 1360 nM. Also, the Emax (Table 2, human M1) amounted to 84.1%.

The EC50 is the concentration that produces a half-maximal response. In general, Emax refers to the maximal effect, on the per cent scale that the assay sets.
